Reference: ChEMBL document CHEMBL5352439, “Design, synthesis, biological evaluation and molecular docking study of novel urea-based benzamide derivatives as potent poly(ADP-ribose) polymerase-1 (PARP-1) inhibitors” (Eur J Med Chem, 2022)
pIC50: −log10 of the molar value.

Legend:
HCT-116 [1] = assay: Antiproliferative activity against human HCT-116 cells assessed as inhibition of cell growth at 20 uM incubated for 48 hrs by MTT assay; assay type: functional
HeLa [2] = assay: Antiproliferative activity against human HeLa cells assessed as inhibition of cell growth incubated for 48 hrs by MTT assay; assay type: functional, cell-based
A549 [3] = assay: Antiproliferative activity against human A549 cells assessed as inhibition of cell growth incubated for 48 hrs by MTT assay; assay type: functional, cell-based; settings: A549, 48 h
HeLa [4] = assay: Antiproliferative activity against human HeLa cells assessed as inhibition of cell growth at 20 uM incubated for 48 hrs by MTT assay; assay type: functional
MDA-MB-231 [5] = assay: Antiproliferative activity against human MDA-MB-231 cells assessed as inhibition of cell growth at 20 uM incubated for 48 hrs by MTT assay; assay type: functional
A-375 [6] = assay: Antiproliferative activity against human A-375 cells assessed as inhibition of cell growth incubated for 48 hrs by MTT assay; assay type: functional, cell-based; settings: A-375, 48 h
A549 [7] = assay: Antiproliferative activity against human A549 cells assessed as inhibition of cell growth at 20 uM incubated for 48 hrs by MTT assay; assay type: functional
A-375 [8] = assay: Antiproliferative activity against human A-375 cells assessed as inhibition of cell growth at 20 uM incubated for 48 hrs by MTT assay; assay type: functional
MDA-MB-231 [9] = assay: Antiproliferative activity against human MDA-MB-231 cells assessed as inhibition of cell growth incubated for 48 hrs by MTT assay; assay type: functional, cell-based; settings: MDA-MB-231, 48 h
HCT-116 [10] = assay: Antiproliferative activity against human HCT-116 cells assessed as inhibition of cell growth incubated for 48 hrs by MTT assay; assay type: functional, cell-based; settings: HCT-116, 48 h
HCT-116 [11] = assay: Inhibition of cell migration in human HCT-116 cells at 25 uM incubated for 48 hrs by wound healing assay (reference value: 42.8 %); assay type: functional
L02 = assay: Antiproliferative activity against human L02 cells assessed as inhibition of cell growth […] incubated for 48 hrs by MTT assay; assay type: functional, cell-based; settings: L02, 48 h
HCT-116 [12] = assay: Inhibition of cell migration in human HCT-116 cells at 25 uM incubated for 24 hrs by wound healing assay (reference value: 32.0 %); assay type: functional

Row | Structure (SMILES) | inhibition at 20 µM (HCT-116 [1]) [%] | pIC50 (HeLa [2]) | pIC50 (A549 [3]) | inhibition at 20 µM (HeLa [4]) [%] | inhibition at 20 µM (MDA-MB-231 [5]) [%] | pIC50 (A-375 [6]) | inhibition at 20 µM (A549 [7]) [%] | inhibition at 20 µM (A-375 [8]) [%] | pIC50 (MDA-MB-231 [9]) | pIC50 (HCT-116 [10]) | inhibition at 25 µM (HCT-116 [11]) [%] | pIC50 (L02) | inhibition at 25 µM (HCT-116 [12]) [%]
1 | NC(=O)c1ccccc1NCc1ccc(NC(=O)Nc2cccc(Cl)c2)cc1 | 63.6 | 4.92 | 4.70 | 76.5 | 47.3 | 4.60 | 52.6 | 58.3 | 4.69 | 4.88 |  |  | 
2 | NC(=O)c1ccccc1NCc1ccccc1NC(=O)Nc1cccc(Br)c1 | 29.1 |  |  | 15.5 | 19.2 |  | 36.1 | 38.2 |  |  |  |  | 
3 | O=C(c1cc(Cc2n[nH]c(=O)c3ccccc23)ccc1F)N1CCN(C(=O)C2CC2)CC1 [OLAPARIB] |  | 4.56 | 4.50 |  |  | 4.90 |  |  | 4.60 | 4.56 | 33.1 | 4.22 | 25.8
4 | NC(=O)c1ccccc1NCc1ccccc1NC(=O)Nc1cccc(Cl)c1 | 44.3 |  |  | 7.53 | 36.2 |  | 52.6 | 30 |  |  |  |  | 
5 | NC(=O)c1ccccc1NCc1ccc(NC(=O)Nc2cccc(Br)c2)cc1 | 72.5 | 4.86 | 4.93 | 71.5 | 67.2 | 4.71 | 82.2 | 67.2 | 4.84 | 4.98 |  |  | 
6 | COc1cccc(NC(=O)Nc2cccc(COc3ccccc3C(N)=O)c2)c1 | 36.8 |  |  | 33.1 | 38.8 |  | 15.8 | 29.9 |  |  |  |  | 
7 | Cc1cccc(NC(=O)Nc2ccccc2COc2ccccc2C(N)=O)c1 | 80 |  |  | < 1 | 37.8 |  | 20.6 | < 1 |  |  |  |  | 
8 | Cc1cccc(NC(=O)Nc2ccc(COc3ccccc3C(N)=O)cc2)c1 | 24 |  |  | 37.5 | 42.2 |  | 10 | 23.7 |  |  |  |  | 
9 | Cc1cccc(NC(=O)Nc2cccc(COc3ccccc3C(N)=O)c2)c1 | 66.5 |  |  | 48.6 | 3.6 |  | 57.7 | 43.7 |  |  |  |  | 
10 | NC(=O)c1ccccc1NCc1ccccc1NC(=O)Nc1ccccc1 | 83.3 |  |  | < 1 | 40.9 |  | 17.7 | < 1 |  |  |  |  | 
11 | Cc1cccc(NC(=O)Nc2cccc(CNc3ccccc3C(N)=O)c2)c1 | 76.2 | 4.53 | 4.57 | 58 | 57.9 | 4.43 | 58.3 | 42.4 | 4.61 | 4.60 |  |  | 
12 | COc1cccc(NC(=O)Nc2ccc(COc3ccccc3C(N)=O)cc2)c1 | 56.7 |  |  | 21 | 53.4 |  | 33.1 | 33.1 |  |  |  |  | 
13 | NC(=O)c1ccccc1OCc1cccc(NC(=O)Nc2cccc(F)c2)c1 | 32.6 |  |  | 40.1 | 57.7 |  | 17 | 17.5 |  |  |  |  | 
14 | NC(=O)c1ccccc1NCc1cccc(NC(=O)Nc2cccc(F)c2)c1 | 45.6 |  |  | 28.9 | 58.9 |  | < 1 | 17.9 |  |  |  |  | 
15 | COc1cccc(NC(=O)Nc2ccc(CNc3ccccc3C(N)=O)cc2)c1 | 82.3 | 4.66 | 4.38 | 66.8 | 50 | 4.53 | 59.3 | 50.8 | 4.67 | 4.85 |  |  | 
16 | NC(=O)c1ccccc1OCc1ccccc1NC(=O)Nc1ccccc1 | 13.3 |  |  | 36 | 30.3 |  | 33 | 21.7 |  |  |  |  | 
17 | Cc1cccc(NC(=O)Nc2ccccc2CNc2ccccc2C(N)=O)c1 | 71.9 |  |  | < 1 | 17.9 |  | 1.8 | 34 |  |  |  |  | 
18 | COc1cccc(NC(=O)Nc2cccc(CNc3ccccc3C(N)=O)c2)c1 | 30.2 |  |  | 27 | 59.1 |  | < 1 | 25 |  |  |  |  | 

Row | Structure (SMILES) | inhibition at 20 µM (HCT-116 [1]) [%] | pIC50 (HeLa [2]) | pIC50 (A549 [3]) | inhibition at 20 µM (HeLa [4]) [%] | inhibition at 20 µM (MDA-MB-231 [5]) [%] | pIC50 (A-375 [6]) | inhibition at 20 µM (A549 [7]) [%] | inhibition at 20 µM (A-375 [8]) [%] | pIC50 (MDA-MB-231 [9]) | pIC50 (HCT-116 [10]) | inhibition at 25 µM (HCT-116 [11]) [%] | pIC50 (L02) | inhibition at 25 µM (HCT-116 [12]) [%]
19 | NC(=O)c1ccccc1NCc1ccc(NC(=O)Nc2ccccc2)cc1 | 41.2 |  |  | 32.3 | 45.2 |  | 29 | 35 |  |  |  |  | 
20 | NC(=O)c1ccccc1OCc1ccccc1NC(=O)Nc1cccc(Br)c1 | 40.4 |  |  | 42.5 | 27.3 |  | 10.1 | 31.7 |  |  |  |  | 
21 | Cc1cccc(NC(=O)Nc2ccc(CNc3ccccc3C(N)=O)cc2)c1 | 33.7 |  |  | 39.6 | 50.5 |  | 2.12 | 14.3 |  |  |  |  | 
22 | NC(=O)c1ccccc1OCc1cccc(NC(=O)Nc2ccccc2)c1 | 71.1 |  |  | 41 | 15 |  | 54.7 | 40.6 |  |  |  |  | 
23 | NC(=O)c1ccccc1NCc1cccc(NC(=O)Nc2ccccc2)c1 | 64.6 |  |  | 49.8 | 51.2 |  | 66.2 | 36.9 |  |  |  |  | 
24 | NC(=O)c1ccccc1OCc1ccc(NC(=O)Nc2cccc(Cl)c2)cc1 | 74 | 4.82 | 4.59 | 66.1 | 40.1 | 4.57 | 46.6 | 54.2 | 4.60 | 4.79 |  |  | 
25 | NC(=O)c1ccccc1NCc1ccccc1NC(=O)Nc1cccc(F)c1 | 40.5 |  |  | 44.6 | 52.1 |  | < 1 | 28.3 |  |  |  |  | 
26 | NC(=O)c1ccccc1OCc1ccc(NC(=O)Nc2cccc(F)c2)cc1 | 43 |  |  | 33.7 | 36.2 |  | 28.6 | 36.9 |  |  |  |  | 
27 | NC(=O)c1ccccc1OCc1cccc(NC(=O)Nc2cccc(Cl)c2)c1 | 83.3 | 4.90 | 4.91 | 77.6 | 65.2 | 4.54 | 85 | 63.1 | 4.67 | 4.91 |  |  | 
28 | NC(=O)c1ccccc1NCc1ccc(NC(=O)Nc2cccc(F)c2)cc1 | 27 |  |  | 27.4 | 34.6 |  | 8.3 | 36.8 |  |  |  |  | 
29 | NC(=O)c1ccccc1OCc1ccccc1NC(=O)Nc1cccc(F)c1 | 18.9 |  |  | < 1 | 40.4 |  | < 1 | 22.5 |  |  |  |  | 
30 | NC(=O)c1ccccc1NCc1cccc(NC(=O)Nc2cccc(Cl)c2)c1 | 84 | 4.47 | 4.81 | 44.4 | 70.9 | 4.59 | 85.3 | 75.7 | 4.79 | 4.95 |  |  | 
31 | NC(=O)c1ccccc1OCc1ccccc1NC(=O)Nc1cccc(Cl)c1 | 72.4 |  |  | 32.7 | 30.2 |  | 35.4 | 34.1 |  |  |  |  | 
32 | COc1cccc(NC(=O)Nc2ccccc2COc2ccccc2C(N)=O)c1 | 70.2 |  |  | 26.5 | 37.3 |  | < 1 | 33.1 |  |  |  |  | 
33 | NC(=O)c1ccccc1OCc1ccc(NC(=O)Nc2ccccc2)cc1 | 34.2 |  |  | 20.1 | 45.5 |  | 24.3 | 37.3 |  |  |  |  | 
34 | COc1cccc(NC(=O)Nc2ccccc2CNc2ccccc2C(N)=O)c1 | 45.3 |  |  | < 1 | 37.7 |  | 13.1 | 35.4 |  |  |  |  | 
35 | NC(=O)c1ccccc1OCc1ccc(NC(=O)Nc2cccc(Br)c2)cc1 | 62.2 | 4.76 | 4.57 | 60.4 | 46.1 | 4.87 | 42.4 | 54 | 4.56 | 4.75 |  |  | 
